Tests used:
[1] = Saturation limit of chlorine dioxide in water; type: physicochemical; conditions: 5° C. and normal pressure
Text: With the method according to the invention, chlorine dioxide solutions can be produced in any desired and/or suitable concentration. Preferably, aqueous solutions of up to about 2 wt %, preferably about 1 wt % of chlorine dioxide are produced with the method according to the invention. Chlorine dioxide solutions with higher concentrations are more difficult to obtain because of the limited solubility of chlorine dioxide in water, but they can nevertheless be realized. When using higher concentrations of chlorite for the production of the chlorine dioxide solutions according to the invention, in particular when using chlorite concentrations in the range of the saturation solubility of the corresponding chlorite salt, aqueous chlorine dioxide solutions with a concentration of up to about 4.5 wt % can be produced. The value of about 4.5 wt % represents the saturation limit of chlorine dioxide in water determined experimentally at 5° C. and normal pressure. With higher pressure, even free chlorine dioxide phases can be generated in water. […] This means that the solubility of chlorine dioxide is higher, the less foreign matter there is in the solution. […]

[2] = aqueous solution, 20° C.; cited from earlier work

Compound	saturation limit of chlorine dioxide in water [1]	saturation concentration [2]
[O][Cl+][O-] [chlorine dioxide]	about 4.5 wt %	–
O=S(=O)([O-])OOS(=O)(=O)[O-].[Na+].[Na+] [sodium peroxodisulfate]	–	about 54.5 wt %
